Values quoted from earlier work, collected in US9180194B2, “Method and composition for transdermal drug delivery” (Acrux DDS Pty Ltd, priority 2005, dated 2015).

Conditions: continuous trans-scrotal delivery

## C[C@]12CC[C@H]3[C@@H](CCC4=CC(=O)CC[C@@]43C)[C@@H]1CC[C@@H]2O [testosterone]
  levels of DHT and DHT/testosterone ratios relative to normal: 4 to 5 fold
